# Laboratory results reported in US20240368135A1 (VERTEX PHARMACEUTICALS INCORPORATED, priority 2021, published 2024).
# Target: human NaV 1.8 (Homo sapiens, UniProt Q9Y5Y9)
# Experiment: E-VIPR assay detecting and measuring NaV inhibition properties
# Assay type: cell-based
# Conditions: HEK cells expressing truncated human NaV 1.8; in the presence of human serum (compound numbers followed by *); read-out: IC50 in the E-VIPR Assay, performed in the presence of human serum
# In short: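 HEK cells expressing truncated, fully active human NaV1.8, with KIR2.1 BacMam co-transduction, were loaded with CC2-DMPE/DiSBAC6(3) voltage-sensing dyes for 20 min at room temperature. Compounds were tested in 11-point 3-fold dilutions (300 nM top final), optionally with 25% human serum, under electrical stimulation with FRET read-out.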
# human NaV 1.8, sequence (Q9Y5Y9 126-399 limits assumed): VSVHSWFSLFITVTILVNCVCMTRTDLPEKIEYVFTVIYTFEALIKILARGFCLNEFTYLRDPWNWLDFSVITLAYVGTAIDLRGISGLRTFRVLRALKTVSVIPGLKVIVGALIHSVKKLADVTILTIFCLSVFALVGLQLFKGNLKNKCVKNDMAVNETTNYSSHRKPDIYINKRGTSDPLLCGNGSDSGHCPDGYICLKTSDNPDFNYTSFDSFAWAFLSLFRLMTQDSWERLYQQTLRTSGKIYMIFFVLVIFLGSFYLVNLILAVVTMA
# human NaV 1.8, sequence (Q9Y5Y9 660-890 limits assumed): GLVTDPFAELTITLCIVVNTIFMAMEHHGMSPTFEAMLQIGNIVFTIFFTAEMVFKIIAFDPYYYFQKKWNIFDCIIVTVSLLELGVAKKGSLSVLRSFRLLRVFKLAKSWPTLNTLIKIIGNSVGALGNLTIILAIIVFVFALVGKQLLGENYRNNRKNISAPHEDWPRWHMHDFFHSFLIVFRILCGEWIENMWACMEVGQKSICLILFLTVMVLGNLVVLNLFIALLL
# human NaV 1.8, sequence (Q9Y5Y9 1148-1722 limits assumed): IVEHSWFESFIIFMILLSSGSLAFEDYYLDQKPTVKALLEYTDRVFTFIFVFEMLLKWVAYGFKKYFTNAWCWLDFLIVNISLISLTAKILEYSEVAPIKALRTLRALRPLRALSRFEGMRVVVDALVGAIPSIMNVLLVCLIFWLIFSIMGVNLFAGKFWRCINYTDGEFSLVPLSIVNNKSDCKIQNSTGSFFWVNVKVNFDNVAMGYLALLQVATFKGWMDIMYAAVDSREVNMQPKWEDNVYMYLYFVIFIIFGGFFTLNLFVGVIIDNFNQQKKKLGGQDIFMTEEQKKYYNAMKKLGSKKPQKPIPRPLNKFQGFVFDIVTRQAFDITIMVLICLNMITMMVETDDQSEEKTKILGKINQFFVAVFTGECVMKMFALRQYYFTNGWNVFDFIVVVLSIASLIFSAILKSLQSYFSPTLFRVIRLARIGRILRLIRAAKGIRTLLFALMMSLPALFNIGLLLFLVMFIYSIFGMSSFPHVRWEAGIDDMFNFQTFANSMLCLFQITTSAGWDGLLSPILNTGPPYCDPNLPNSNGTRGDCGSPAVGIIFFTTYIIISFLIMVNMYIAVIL
row,SMILES,IC50 [µM]
1,"COc1c([C@H]2C[C@@](C)(C(F)(F)F)O[C@@H]2C(=O)Nc2ccnc([C@H](O)CO)c2)ccc(F)c1C (single isomer, unassigned) [Compound 703]",≥ 1
2,"CNCc1cc(NC(=O)C2OC(C)(C(F)(F)F)C(C)C2c2ccc(F)c(F)c2OC)c(F)cn1 (centres unmarked) [Compound 58, 3-(3,4-difluoro-2-methoxy-phenyl)-N-[5-fluoro-2-(methylaminomethyl)-4-pyridyl]-4,5-dimethyl-5-(trifluoromethyl)tetrahydrofuran-2-carboxamide]",≥ 1

# Same assay, conditions: HEK cells expressing truncated human NaV 1.8; no human serum; read-out: IC50 in the E-VIPR Assay
row,SMILES,IC50 [µM]
1,"COc1c([C@H]2[C@H](C(=O)Nc3ccc4nc(C(=O)N5CCOCC5)cn4c3)O[C@@](C)(C(F)(F)F)[C@H]2C)ccc(F)c1F [Compound 259, (2R,3S,4S,5R)-3-(3,4-difluoro-2-methoxyphenyl)-4,5-dimethyl-N-(2-(morpholine-4-carbonyl)imidazo[1,2-a]pyridin-6-yl)-5-(trifluoromethyl)tetrahydrofuran-2-carboxamide]",0.01 to 0.1
2,"COc1c([C@H]2[C@H](C(=O)NCC3(C)CCOCC3)O[C@@](C)(C(F)(F)F)[C@H]2C)ccc(F)c1F [Compound 300, (2R,3S,4S,5R)-3-(3,4-difluoro-2-methoxyphenyl)-4,5-dimethyl-N-((4-methyltetrahydro-2H-pyran-4-yl)methyl)-5-(trifluoromethyl)tetrahydrofuran-2-carboxamide]",≥ 1
3,"COc1c([C@H]2[C@H](C(=O)Nc3cncc(CO)n3)O[C@@](C)(C(F)(F)F)[C@H]2C)ccc(F)c1F [Compound 382, (2R,3S,4S,5R)-3-(3,4-difluoro-2-methoxyphenyl)-N-(6-(hydroxymethyl)pyrazin-2-yl)-4,5-dimethyl-5-(trifluoromethyl)tetrahydrofuran-2-carboxamide]",0.1 to 1
4,"C[C@H]1[C@@H](c2ccc(F)c(F)c2OCCO)[C@H](C(=O)Nc2ncn(C3CCOC3)n2)O[C@@]1(C)C(F)(F)F (stereo partly drawn) [Compound 561, (2R,3S,4S,5R)-3-(3,4-difluoro-2-(2-hydroxyethoxy)phenyl)-4,5-dimethyl-N-(1-(tetrahydrofuran-3-yl)-1H-1,2,4-triazol-3-yl)-5-(trifluoromethyl)tetrahydrofuran-2-carboxamide]",≥ 1
5,"CNC(CO)c1cc(NC(=O)[C@@H]2O[C@@](C)(C(F)(F)F)[C@@H](C)[C@H]2c2ccc(F)c(F)c2OC)ccn1 (single isomer, unassigned) [Compound 232]",< 0.01
6,"CCOc1c([C@H]2[C@H](C(=O)Nc3ccn(C)c(=O)c3)O[C@@](C)(C(F)(F)F)[C@H]2C)ccc(F)c1F (stereo in doubt) [Compound 101, rac-(2R,3S,4S,5R)-3-(2-ethoxy-3,4-difluorophenyl)-4,5-dimethyl-N-(1-methyl-2-oxo-1,2-dihydropyridin-4-yl)-5-(trifluoromethyl)tetrahydrofuran-2-carboxamide]",< 0.01
7,"COCC(C)(N)c1cc(NC(=O)[C@@H]2O[C@@](C)(C(F)(F)F)[C@@H](C)[C@H]2c2ccc(F)c(F)c2OC)c(F)cn1 (single isomer, unassigned) [Compound 354, rel-(2R*,3S*,4S*,5R*)-N-(2-(2-amino-1-methoxypropan-2-yl)-5-fluoropyridin-4-yl)-3-(3,4-difluoro-2-methoxyphenyl)-4,5-dimethyl-5-(trifluoromethyl)-tetrahydrofuran-2-carboxamide]",< 0.01
8,"COCC(N)c1cc(NC(=O)[C@@H]2O[C@@](C)(C(F)(F)F)[C@@H](C)[C@H]2c2ccc(F)c(F)c2OC)c(F)cn1 (single isomer, unassigned) [Compound 423, rel-(2R*,3S*,4S*,5R*)-N-(2-(1-amino-2-methoxyethyl)-5-fluoropyridin-4-yl)-3-(3,4-difluoro-2-methoxyphenyl)-4,5-dimethyl-5-(trifluoromethyl)-tetrahydrofuran-2-carboxamide]",< 0.01
9,"COc1c([C@H]2[C@H](C(=O)Nc3ccc(-n4ccc(C)n4)nc3)O[C@@](C)(C(F)(F)F)[C@H]2C)ccc(F)c1F [Compound 395, (2R,3S,4S,5R)-3-(3,4-difluoro-2-methoxyphenyl)-4,5-dimethyl-N-(6-(3-methyl-1H-pyrazol-1-yl)pyridin-3-yl)-5-(trifluoromethyl)-tetrahydrofuran-2-carboxamide]",0.01 to 0.1
10,"COc1c([C@H]2[C@H](C(=O)NCC3COC(C)(C)C3)O[C@@](C)(C(F)(F)F)[C@H]2C)ccc(F)c1F (stereo partly drawn) [Compound 284, (2R,3S,4S,5R)-3-(3,4-difluoro-2-methoxyphenyl)-N-((5,5-dimethyltetrahydrofuran-3-yl)methyl)-4,5-dimethyl-5-(trifluoromethyl)tetrahydrofuran-2-carboxamide]",≥ 1
11,COc1c([C@H]2[C@H](C(=O)Nc3ccnc(CN[C@@H]4CCOC4)c3)O[C@@](C)(C(F)(F)F)[C@H]2C)ccc(F)c1F [Compound 23],< 0.01
12,"COc1c([C@H]2[C@H](C(=O)Nc3ccc(CCS(C)(=O)=O)nc3)O[C@@](C)(C(F)(F)F)[C@H]2C)ccc(F)c1F [Compound 194, (2R,3S,4S,5R)-3-(3,4-difluoro-2-methoxyphenyl)-4,5-dimethyl-N-(6-(2-(methylsuflonyl)ethyl)pyridin-3-yl)-5-(trifluoromethyl)tetrahydrofuran-2-carboxamide]",0.01 to 0.1
13,"COc1c([C@H]2[C@H](C(=O)Nc3ccc4nc(C(=O)NCCO)cn4c3)O[C@@](C)(C(F)(F)F)[C@H]2C)ccc(F)c1F [Compound 260, 6-((2R,3S,4S,5R)-3-(3,4-difluoro-2-methoxyphenyl)-4,5-dimethyl-5-(trifluoromethyl)tetrahydrofuran-2-carboxamido)-N-(2-hydroxyethyl)imidazo[1,2-a]pyridine-2-carboxamide]",0.01 to 0.1
14,"COc1c([C@H]2[C@H](C(=O)Nc3ccnc(CO)n3)O[C@@](C)(C(F)(F)F)[C@H]2C)ccc(F)c1F [Compound 381, (2R,3S,4S,5R)-3-(3,4-difluoro-2-methoxyphenyl)-N-(2-(hydroxymethyl)pyrimidin-4-yl)-4,5-dimethyl-5-(trifluoromethyl)tetrahydrofuran-2-carboxamide]",0.01 to 0.1
15,"Cc1ncc(NC(=O)[C@@H]2O[C@@](C)(C(F)(F)F)[C@@H](C)[C@H]2c2ccc(F)c(F)c2OCCO)cn1 [Compound 569, (2R,3S,4S,5R)-3-(3,4-difluoro-2-(2-hydroxyethoxy)phenyl)-4,5-dimethyl-N-(2-methylpyrimidin-5-yl)-5-(trifluoromethyl)tetrahydrofuran-2-carboxamide]",0.1 to 1
16,"Cc1conc1NC(=O)[C@@H]1O[C@@](C)(C(F)(F)F)[C@@H](C)[C@H]1c1ccc(F)c(F)c1OCCO [Compound 545, (2R,3S,4S,5R)-3-(3,4-difluoro-2-(2-hydroxyethoxy)phenyl)-4,5-dimethyl-N-(4-methylisoxazol-3-yl)-5-(trifluoromethyl)tetrahydrofuran-2-carboxamide]",0.01 to 0.1
17,"C[C@H]1[C@@H](c2ccc(F)c(F)c2OCCN2CCOCC2)[C@H](C(=O)Nc2cc(C(N)=O)nn2C)O[C@@]1(C)C(F)(F)F [Compound 592, 5-((2R,3S,4S,5R)-3-(3,4-difluoro-2-(2-morpholinoethoxy)phenyl)-4,5-dimethyl-5-(trifluoromethyl)tetrahydrofuran-2-carboxamido)-1-methyl-1H-pyrazole-3-carboxamide]",0.01 to 0.1
18,"COc1c([C@H]2[C@H](C(=O)Nc3ccnc(C(O)C4CC4)c3)O[C@@](C)(C(F)(F)F)[C@H]2C)ccc(F)c1F (single isomer, unassigned) [Compound 251, rel-(2R*,3S*,4S*,5R*)-N-(2-(cyclopropyl(hydroxy)methyl)pyridin-4-yl)-3-(3,4-difluoro-2-methoxyphenyl)-4,5-dimethyl-5-(trifluoromethyl)tetrahydrofuran-2-carboxamide]",< 0.01
19,"COc1c([C@H]2[C@H](C(=O)Nc3cn(C)cn3)O[C@@](C)(C(F)(F)F)[C@H]2C)ccc(F)c1F [Compound 318, (2R,3S,4S,5R)-3-(3,4-difluoro-2-methoxyphenyl)-4,5-dimethyl-N-(1-methyl-1H-imidazol-4-yl)-5-(trifluoromethyl)-tetrahydrofuran-2-carboxamide]",≥ 1
20,"COc1c([C@H]2[C@H](C(=O)Nc3ccn4c(=O)n(CCO)nc4c3)O[C@@](C)(C(F)(F)F)[C@H]2C)ccc(F)c1F [Compound 430, (2R,3S,4S,5R)-3-(3,4-difluoro-2-methoxy-phenyl)-N-[2-(2-hydroxyethyl)-3-oxo-[1,2,4]triazolo[4,3-a]pyridin-7-yl]-4,5-dimethyl-5-(trifluoromethyl)tetrahydrofuran-2-carboxamide]",0.01 to 0.1
21,"COc1c([C@H]2[C@H](C(=O)NC3CCOCC3)O[C@@](C)(C(F)(F)F)[C@H]2C)ccc(F)c1F [Compound 269, (2R,3S,4S,5R)-3-(3,4-difluoro-2-methoxyphenyl)-4,5-dimethyl-N-(tetrahydro-2H-pyran-4-yl)-5-(trifluoromethyl)tetrahydrofuran-2-carboxamide]",≥ 1
22,"Cc1nn(C(F)F)cc1NC(=O)[C@@H]1O[C@@](C)(C(F)(F)F)[C@@H](C)[C@H]1c1ccc(F)c(F)c1CN1CC2(COC2)C1 [Compound 670, (2R,3S,4S,5R)-3-(2-((2-oxa-6-azaspiro[3.3]heptan-6-yl)methyl)-3,4-difluorophenyl)-N-(1-(difluoromethyl)-3-methyl-1H-pyrazol-4-yl)-4,5-dimethyl-5-(trifluoromethyl)tetrahydrofuran-2-carboxamide]",0.01 to 0.1
23,"COc1c([C@H]2[C@H](C(=O)NCC3CC3)O[C@@](C)(C(F)(F)F)[C@H]2C)ccc(F)c1F [Compound 270, (2R,3S,4S,5R)-N-(cyclopropylmethyl)-3-(3,4-difluoro-2-methoxyphenyl)-4,5-dimethyl-5-(trifluoromethyl)tetrahydrofuran-2-carboxamide]",0.1 to 1
24,C[C@H]1[C@@H](c2ccc(F)c(F)c2OCCN2CC3(COC3)C2)[C@H](C(=O)Nc2cccnc2)O[C@@]1(C)C(F)(F)F [Compound 636],0.01 to 0.1
